Data: US12571052B2, “Immunomodulatory RNA” (THE TRUSTEES OF THE UNIVERSITY OF PENNSYLVANIA, priority 2017, dated 2026)
“Also recorded” adds a separate entry of the source.

Key:
[1] = system: pancreatic ductal adenocarcinoma (PDA) tumor cells; test: PDA/MEF co-injection, tumor growth under ICB therapy; assay type: in vivo, mice; settings: BLZ945 with unshielded 7SL RNA, anti-CTLA4 and anti-PD1
Method: CSF1R inhibition in combination with unshielded 7SL RNA sensitizes PDA tumors to ICB therapy (FIGS. 28A-28B). 1×10^5 pancreatic ductal adenocarcinoma (PDA) tumor cells were co-injected with 1×10^5 MEFs (“myc-ER”) or MEFs co-expressing SRP9/14 (“myc-ER/SRP”) treated with 4OHT or EtOH. Mice were then treated with a combination of anti-CTLA4 and anti-PD1 antibodies (FIG. 28A) or a triple combination of anti-CTLA4, anti-PD1, and BLZ945 (FIG. 28B) using treatment schedules outlined in the study shown in FIGS. 27A-27C. Tumor growth was monitored by caliper.

B16-F10 tumor cells [2] = test: B16-F10/MEF co-implantation, tumor immune populations by flow cytometry; assay type: in vivo, C57BL/6 mice
Method: Mice were implanted with tumors as described FIGS. 25A-25B. Tumors were harvested 13 days later and assessed for infiltration of macrophages or myeloid derived suppressor cells (MDSCs). Macrophages are considered Lin−, F4/80+, and CD11b+ cells. MDSCs are considered Lin−, F4/80−, CD11c−, CD11b+, and Ly6C+ cells. Tumors were treated with anti-CTLA4 blocking antibody (FIG. 26D) as described in FIGS. 25A and 25B, and tumors were harvested at d15 to measure M2 polarization of macrophages as marked by CD206.
Furthermore, mice were implanted with the same tumors and subsequently treated with the CSF1R inhibitor BLZ945. Polarization of macrophages and frequency of CD103+DCs were tested.
In addition, mice were implanted with tumors and treated with anti-CTLA4+/−CSF1Ri BLZ945. Tumors were harvested 13 days later and immune populations were assessed using an unbiased clustering of flow cytometry data.
Mice were implanted with B16-F10 tumor cells mixed 1:1 with MEFs or MEFs co-expressing SRP9/14 (FIG. 35B). Tumors were harvested 2 weeks post-injection and analyzed for immune cell populations. Unshielded RN7SL1 increased the frequency of dendritic cells, the percentage of CD103+ dendritic cells, the percentage of CD69+CD8+ T cells, and the percentage of PD1+CD8+ T cells in tumors (FIG. 35C). […] Without wishing to be bound by theory, a CSF1R inhibitor blocks M2 polarization and may synergize with unshielded RN7SL1.

B16-F10 tumor cells [3] = test: B16-F10/MEF co-implantation, tumor growth and survival under checkpoint blockade; assay type: in vivo, C57BL/6 mice; settings: BLZ945 every 2 days for 2 weeks, anti-CTLA4 or anti-CTLA4 and anti-PD1, tumors with unshielded 7SL
Method: Wild type (WT) C57BL/6 mice were injected with 5×10^4 B16-F10 tumor cells subcutaneously in the flank with 5×10^4 MYC activated mouse embryonic fibroblasts (MEFs) or MYC activated MEFs co-expressing SRP9/14. MYC activation is inducible with 4-OHT and results in the secretion of exosomes containing unshielded 7SL1 RNA, while co-expression of SRP9/14 ensures the 7SL1 RNA remains relatively shielded, allowing measurement of the stimulatory capacity specifically of the unshielded form (Nabet B Y, et al. Cell. 2017; 170 (2): 352-366.e13). Mice were subsequently treated with the anti-CTLA-4 or anti-PD-1 antibody (or not), and then tumor growth was monitored by caliper. Endpoint criterion was considered a tumor measurement of 1.5 cm in any direction.
Tumors were implanted as described in FIGS. 25A-25B and treated with CSF1R inhibitor BLZ945 (Novartis) every 2 days for 2 weeks starting at day 0 to prevent M2 polarization of infiltrating myeloid cells. Mice were additionally treated with anti-CTLA4 (FIG. 27A) or anti-CTLA4 and anti-PD1 (FIGS. 27B and 27C) on days 5, 8, and 11. Tumor growth was monitored by caliper.

recombinant RIG-I = target: T1, recombinant RIG-I (Homo sapiens, UniProt O95786); test: RIG-I ATPase assay (ATP hydrolysis); assay type: biochemical
T1 sequence (O95786 1-925): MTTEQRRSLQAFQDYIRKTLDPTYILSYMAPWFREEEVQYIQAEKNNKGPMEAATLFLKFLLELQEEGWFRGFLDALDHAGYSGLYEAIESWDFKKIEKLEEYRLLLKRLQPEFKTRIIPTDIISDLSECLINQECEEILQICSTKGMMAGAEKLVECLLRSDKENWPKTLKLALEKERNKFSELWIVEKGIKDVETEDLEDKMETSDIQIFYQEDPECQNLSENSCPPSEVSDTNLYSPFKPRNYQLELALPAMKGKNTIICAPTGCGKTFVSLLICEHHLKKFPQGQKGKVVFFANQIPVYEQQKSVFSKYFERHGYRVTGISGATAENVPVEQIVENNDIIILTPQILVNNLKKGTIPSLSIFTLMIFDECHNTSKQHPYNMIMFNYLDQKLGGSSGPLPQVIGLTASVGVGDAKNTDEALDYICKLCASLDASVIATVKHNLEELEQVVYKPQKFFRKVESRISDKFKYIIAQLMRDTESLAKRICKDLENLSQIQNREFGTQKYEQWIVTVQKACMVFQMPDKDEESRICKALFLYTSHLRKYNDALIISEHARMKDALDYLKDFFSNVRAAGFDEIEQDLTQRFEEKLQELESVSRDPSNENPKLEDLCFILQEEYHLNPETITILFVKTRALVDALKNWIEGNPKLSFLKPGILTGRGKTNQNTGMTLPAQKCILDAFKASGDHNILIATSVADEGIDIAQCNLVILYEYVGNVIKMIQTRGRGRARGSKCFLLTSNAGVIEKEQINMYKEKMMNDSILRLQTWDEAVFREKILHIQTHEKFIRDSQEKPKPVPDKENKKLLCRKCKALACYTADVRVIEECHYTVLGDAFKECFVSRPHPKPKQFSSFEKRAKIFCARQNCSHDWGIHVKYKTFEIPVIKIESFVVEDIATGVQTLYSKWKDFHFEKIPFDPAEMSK
Method: RIG-I ATPase Assays. RIG-I ATPase assays were performed as previously described (Devarkar et al. (2016) Proc. Natl. Acad. Sci. 113, 596-601). In brief, increasing amounts of RNA (10-60 nM) were added to a constant quantity of RIG-I (5 nM) in the presence of 1 mM ATP. ATP hydrolysis was measured with the EnzChek Phosphate Assay Kit (ThermoFisher) after 60-90 minutes at 37° C. ATP hydrolysis was then measured by absorbance of 360 nm compared to background. A 19-mer 5′triphosphate dsRNA (Invivogen) and DVG396 were used as positive controls and a 19-mer 5′OH dsRNA (Invivogen) and an in vitro transcribed 300 bp ssRNA stretch of GAPDH (GAPDH300) were used as negative controls.

## CNC(=O)c1cc(Oc2ccc3nc(N[C@@H]4CCCC[C@H]4O)sc3c2)ccn1 [BLZ945]
[1]
  sensitization of PDA tumors to ICB therapy: sensitizes PDA tumors to anti-PD-1 and anti-CTLA-4 antibody therapies
B16-F10 tumor cells [2]; anti-CTLA4 +/- CSF1Ri, high unshielded 7SL, 13 days
  activated CD4+ T cells in tumors: markedly increased
B16-F10 tumor cells [2]; high levels of unshielded 7SL RNA
  frequency of M2 macrophages in the tumor: decreased the frequency of M2 macrophages found in the tumor
B16-F10 tumor cells [2]; high levels of unshielded 7SL RNA, CSF1R inhibition
  infiltration of cross-presenting CD103+ DCs: improving the infiltration of cross-presenting CD103+DCs
B16-F10 tumor cells [3]
  response to checkpoint blockade with CSF1R inhibition: allows tumors with high levels of unshielded 7SL to respond more robustly to checkpoint blockade; also recorded: enhanced the anti-tumor activity of an anti-PD1 antibody and an anti-CTLA-4 antibody
B16-F10 tumor cells [3]; listed as small molecule inhibitor of CSF1R
  response to checkpoint blockade with CSF1R inhibition: led to improved response in tumors with high levels of unshielded 7SL1

B1: SRP9: Recombinant SRP9 protein, GST tag cleaved with TEV protease (protein, UniProt P49458 2-86, looked up)
Signal recognition particle 9 …: PQYQTWEEFSRAAEKLYLADPMKARVVLKYRHSDGNLCVKVTDDLVCLVYKTDQAQDVKKIEKFHSQLMRLMVAKEARNVTMETE
Recombinant RIG-I; SRP9 added to DVG396 or unrelated 5'ppp or 5'OH control RNAs
  ATP hydrolysis by recombinant RIG-I after addition of SRP9: did not influence
Recombinant RIG-I; SRP9 added to in vitro transcribed RN7SL1
  ATP hydrolysis by recombinant RIG-I after addition of SRP9: partially inhibited ATP hydrolysis by recombinant RIG-I
